The IC50 is the concentration needed to halve the response being measured. Low readings indicate greater potency in that assay, high ones weaker potency in that assay.

Assay [1] concerns the target T1, human L-type amino acid transporter 2 (LAT2; S2-hLAT2 cells) (Homo sapiens, UniProt Q9UHI5).
T1 construct: expressed in transfected cells; host or cells: S2 cells (S2-hLAT2 / S2-LAT2); mammalian cell line described in Morimoto et al., J Pharmacol Sci 2008, 108, 505-516
T1 sequence (Q9UHI5 1-535): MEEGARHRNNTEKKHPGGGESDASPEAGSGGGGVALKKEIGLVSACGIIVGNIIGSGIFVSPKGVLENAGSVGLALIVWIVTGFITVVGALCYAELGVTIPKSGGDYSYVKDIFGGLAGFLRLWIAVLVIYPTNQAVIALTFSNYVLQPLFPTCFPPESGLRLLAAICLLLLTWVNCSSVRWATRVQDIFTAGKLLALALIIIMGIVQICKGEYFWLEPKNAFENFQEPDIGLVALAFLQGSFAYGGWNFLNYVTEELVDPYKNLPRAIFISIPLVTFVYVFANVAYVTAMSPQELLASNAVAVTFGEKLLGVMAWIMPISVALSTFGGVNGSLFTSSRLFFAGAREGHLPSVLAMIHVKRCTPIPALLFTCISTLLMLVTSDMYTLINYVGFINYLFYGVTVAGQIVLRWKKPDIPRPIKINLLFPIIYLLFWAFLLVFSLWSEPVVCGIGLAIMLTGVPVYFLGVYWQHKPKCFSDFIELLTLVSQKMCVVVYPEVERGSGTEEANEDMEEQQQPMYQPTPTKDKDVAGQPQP
T1 sequence (P08195 1-529 partner): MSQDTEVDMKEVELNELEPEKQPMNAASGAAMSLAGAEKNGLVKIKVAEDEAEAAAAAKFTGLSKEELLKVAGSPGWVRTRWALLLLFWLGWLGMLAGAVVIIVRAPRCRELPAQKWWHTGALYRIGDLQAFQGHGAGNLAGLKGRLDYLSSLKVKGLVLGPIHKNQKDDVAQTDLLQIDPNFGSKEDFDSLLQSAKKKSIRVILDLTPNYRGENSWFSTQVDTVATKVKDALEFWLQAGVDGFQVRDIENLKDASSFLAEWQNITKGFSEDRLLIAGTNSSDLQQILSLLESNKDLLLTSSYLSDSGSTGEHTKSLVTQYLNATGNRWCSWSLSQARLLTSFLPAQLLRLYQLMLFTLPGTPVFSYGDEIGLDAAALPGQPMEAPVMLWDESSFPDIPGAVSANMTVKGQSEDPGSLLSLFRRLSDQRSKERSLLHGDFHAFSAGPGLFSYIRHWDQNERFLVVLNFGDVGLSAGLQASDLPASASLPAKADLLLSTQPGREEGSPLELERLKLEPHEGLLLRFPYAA
Description: Inhibition of L-[14C]leucine uptake in S2-LAT2 cells. In kind it is cell-based. The conditions noted are these: inhibition of 1.0 μM L-[14C]leucine uptake, 1.0 min, 37° C., NI = no inhibition at 100 μM. How it is done:
(§1) The establishment and characterization of mammalian cell lines expressing human L-type amino acid transporterss (i.e. S2-hLAT1 and S2-hLAT2) has been previously described (Morimoto et al., Journal of Pharmacological Sciences, 2008, 108, 505-516).
(§2) General test procedures are as follows: All test compounds were dissolved in dimethyl sulfoxide (DMSO) to prepare stock solutions at the concentrations of 0.05, 0.5, 5.0 and 50 mM; next, these stock solutions were used and diluted with uptake solution to make final test concentrations of 0.10, 1.00, 10.0 and 100 μM, respectively. Therefore, all compounds used for uptake experiment were in uptake solution containing 0.2% DMSO; experiments are performed in triplicate for each concentration. For control uptake, only DMSO was added into the uptake solution to a final concentration of 0.2%.
(§3) S2-LAT1 and S2-LAT2 cells were seeded (1.3×10^5 cells/well) into 24-well plates and cultured at 33° C. (5% CO2) for 2-3 days until confluent (90%-100% confluence). Uptake experiments were performed at 37° C. The culture medium was removed and washed 3 times with uptake solution (37° C.; Hank's Na^+ free buffer consisting of 125 mM choline chloride, 4.8 mM KCl, 1.3 mM CaCl2, 1.2 mM MgCl2, 25.0 mM HEPES, and 5.0 mM Tris, pH 7.4, supplemented with D-glucose (5.6 mM). The cells were equilibrated in uptake solution (300 μL; 37° C.) for 12 min. The equilibrated solution was removed and uptake solution containing radio-labeled compound (1.0 μM L-[^14C] Leucine) with or without test compound (300 μL) was added to the cells (1.0 min). The test solution was removed and the cells washed 3 times with ice-cold uptake solution. The cells are then solubilized with 0.1N NaOH (0.5 mL) and transferred to scintillation vials. Liquid scintillation fluid (3.0 mL; aquasol-2) was added, mixed and substrate accumulation was measured by counting radioactivity via liquid scintillation counting (LSC; LSC6100, Aloka, Tokyo). The uptake value and % of inhibition were calculated to afford IC50 values.

Assay [2] has as its target T2, human L-type amino acid transporter 1 (LAT1; S2-hLAT1 cells) (Homo sapiens, UniProt Q01650).
T2 construct: expressed in transfected cells; host or cells: S2 cells (S2-hLAT1 / S2-LAT1); mammalian cell line described in Morimoto et al., J Pharmacol Sci 2008, 108, 505-516
The experiment in a line: Inhibition of L-[14C]leucine uptake in S2-LAT1 cells. In kind it is cell-based. The conditions noted are these: inhibition of 1.0 μM L-[14C]leucine uptake, 1.0 min, 37° C., NI = no inhibition at 100 μM. How it is done:
as §1, §2, §3

T2 sequence (Q01650 whole entry, one chain of several): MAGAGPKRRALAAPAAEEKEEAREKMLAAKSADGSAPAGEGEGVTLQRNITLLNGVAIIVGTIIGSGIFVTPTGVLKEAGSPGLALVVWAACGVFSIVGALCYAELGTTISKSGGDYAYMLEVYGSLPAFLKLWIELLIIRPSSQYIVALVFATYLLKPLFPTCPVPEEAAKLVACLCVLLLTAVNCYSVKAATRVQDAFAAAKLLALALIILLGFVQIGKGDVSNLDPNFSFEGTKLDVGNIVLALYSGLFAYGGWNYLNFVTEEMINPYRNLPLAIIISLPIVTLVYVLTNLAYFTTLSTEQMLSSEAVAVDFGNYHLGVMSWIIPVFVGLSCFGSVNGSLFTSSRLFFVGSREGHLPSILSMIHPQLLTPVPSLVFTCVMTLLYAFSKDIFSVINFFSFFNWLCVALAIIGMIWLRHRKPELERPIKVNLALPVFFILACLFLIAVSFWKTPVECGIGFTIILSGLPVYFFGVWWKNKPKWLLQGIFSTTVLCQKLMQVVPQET

With `N[C@@H](Cc1cc(I)c(OCCc2ccc(OC(F)(F)F)cc2)c(I)c1)C(=O)O` [compound 33], the IC50 in assay [1] and in assay [2] was over 100 µM each time.
`COc1cccc(COc2c(Br)cc(C[C@H](N)C(=O)O)cc2Br)c1` [compound 56]: the values for the IC50 in assay [1] and in assay [2] were over 100 µM and 67.1 µM, respectively.
For `COc1ccc(COc2c(Cl)cc(C[C@H](N)C(=O)O)cc2Cl)cc1[N+](=O)[O-]` [compound 131], the IC50 was determined as 126 µM in assay [1] and 8.4 µM in assay [2].
For `COc1ccc(COc2c(I)cc(C[C@H](N)C(=O)O)cc2I)c(C)c1C` [compound 44], in that order: over 100 µM and 7.7 µM.
For `CCOc1ccc(COc2c(I)cc(C[C@H](N)C(=O)O)cc2I)c(OCC)c1` [compound 48], in that order: over 100 µM and 17.2 µM.
On the same counts, the results for `COc1ccc(COc2c(Cl)cc(C[C@H](N)C(=O)O)cc2Cl)c(OC)c1` [compound 133] are 5.5 µM and 0.8 µM.
For the molecule `COc1cc(COc2c(I)cc(C[C@H](N)C(=O)O)cc2I)cc(OC)c1OC` [compound 45], the IC50 is over 100 µM in assay [1] and 15 µM in assay [2].
On to `CC(N)(Cc1cc(Cl)c(OCc2ccc3c(c2)OCO3)c(Cl)c1)C(=O)O` (racemic) [compound 144], for which the IC50 in assay [1] and in assay [2] was over 100 µM each time.
